What was measured:
P-gp (MDR1-MDCKII cells) = P-gp (MDR1-MDCKII cells) (Homo sapiens, UniProt P08183); test: Bidirectional permeability in MDR1-MDCKII cells with and without GF120918; details: for Rank Papp: MDR1-MDCKII permeability rank
Method: (§1) MDR1-MDCKII cells were seeded onto […] (PET) in a 96-well insert system. Test and reference compounds were administered to the apical (A-to-B) and basolateral (B-to-A) sides of the cell monolayer. Permeation of the compounds in both directions was assessed, with and without a P-glycoprotein (P-gp) inhibitor (GF120918). […] After a 2.5-h incubation period, each compound’s permeability and efflux ratio were calculated as described in the SI. […]
(§2) Bidirectional permeability assessment in MDR1-MDCK cells. Test and reference compounds were quantified using LC -MS/MS ana lysis based on th e peak ar ea r atio of analyte to internal standard (IS). T he apparent permeability coefficient (Papp) in cm/s was computed using the equation: Pa pp = (dCr/d t ) × V r / ( A × C 0), where dCr/ d t […]
(§3) represents the cumulative concentration of the compound in the receiver chamber over time (µM/s), Vr is the solution volume in the receiver chamber (0.075 mL on the apical side, 0.25 mL on the basolateral side), A is the surface area for transport (0.0804 cm2 f or the monolayer ar ea), and C0 is the initial concentration in the donor chamber ( µM) .
(§4) The efflux ratio was determined using the equation Efflux Ratio = P a pp ( B:
(§5) A ) / Pa pp (A: B) . […]
(§6) Additionally, the percent of lucifer yellow in the basolateral well was calculated using the equation:
(§7) Lucif er yellow = VV bbbbbbbbbbbbbbbbbbbb ×RR FFFF bbbbbbbbbbbbbbbbbbbb ×100 VV bbaaaaaa bbbb ×RRRRRR bbaaaaaa bbbb+VV bbbbbbbbbbbbbbbbbbbb ×RRFFFF bbbbbbbbbbbbbbbbbbbb wher e RFUApical and RFUBasolateral demote the r elative f luor escence unit values of lucif er yellow in the apical and basolateral wells, respectively, and VApical and VBasolateral represent the volumes of apical and basolateral wells (0.075 mL and 0.25 mL, r espectively) . T he % Lucif er Yellow should be less than 2, indicating minimal leakage. […]

P-gp (MDR1) = P-gp (MDR1) (Homo sapiens, UniProt P08183); test: as above; details: dog; for Papp A→B at 2.5 h: MDCK-MDR1; for recovery at 2.5 h: MDCK-MDR1, Mean recovery % A to B, without GF120918
Method: as §1, §2, §3, §4, §5, §6, §7

HepG2 cells = test: Cell viability assay (CellTiter Glo); assay type: cell-based; details: Homo sapiens, 72 h, read-out: cell viability relative IC50
Method: Cell viability assay. To assess the cell viability, which indicates the toxicity of the novel compounds, a total of 3,000 HepG2 cells were seeded into a 384-well plate. The compounds were then dispensed onto the cell plate using a Tecan D300e digital dispenser. Following compound addition, 35 μL CellTiter Glo reagent was added to all wells of the assay plate, and the plate was mixed for 30 sec on an or bital shaker to lyse cells. Subsequently, the plate was incubated at room temperature for 10 minutes. The luminescence signal was measured using a 384-well plate reader (EnVision). The obtained data were analyzed using XL-fit software (ID Business Solutions Ltd., Software version: XL fit 5. 5. 0. 5). The percentage of inhibition was calculated using the […]
Inhibition (%) = (1-Sample / ZPE) ×100
Sample represents the test compound's luminesc e nce signal, and ZPE represents the luminescence signal f r om the zer o-percent enzyme control.

P-gp (MDR1-MDCKII cells), sequence (P08183 whole entry): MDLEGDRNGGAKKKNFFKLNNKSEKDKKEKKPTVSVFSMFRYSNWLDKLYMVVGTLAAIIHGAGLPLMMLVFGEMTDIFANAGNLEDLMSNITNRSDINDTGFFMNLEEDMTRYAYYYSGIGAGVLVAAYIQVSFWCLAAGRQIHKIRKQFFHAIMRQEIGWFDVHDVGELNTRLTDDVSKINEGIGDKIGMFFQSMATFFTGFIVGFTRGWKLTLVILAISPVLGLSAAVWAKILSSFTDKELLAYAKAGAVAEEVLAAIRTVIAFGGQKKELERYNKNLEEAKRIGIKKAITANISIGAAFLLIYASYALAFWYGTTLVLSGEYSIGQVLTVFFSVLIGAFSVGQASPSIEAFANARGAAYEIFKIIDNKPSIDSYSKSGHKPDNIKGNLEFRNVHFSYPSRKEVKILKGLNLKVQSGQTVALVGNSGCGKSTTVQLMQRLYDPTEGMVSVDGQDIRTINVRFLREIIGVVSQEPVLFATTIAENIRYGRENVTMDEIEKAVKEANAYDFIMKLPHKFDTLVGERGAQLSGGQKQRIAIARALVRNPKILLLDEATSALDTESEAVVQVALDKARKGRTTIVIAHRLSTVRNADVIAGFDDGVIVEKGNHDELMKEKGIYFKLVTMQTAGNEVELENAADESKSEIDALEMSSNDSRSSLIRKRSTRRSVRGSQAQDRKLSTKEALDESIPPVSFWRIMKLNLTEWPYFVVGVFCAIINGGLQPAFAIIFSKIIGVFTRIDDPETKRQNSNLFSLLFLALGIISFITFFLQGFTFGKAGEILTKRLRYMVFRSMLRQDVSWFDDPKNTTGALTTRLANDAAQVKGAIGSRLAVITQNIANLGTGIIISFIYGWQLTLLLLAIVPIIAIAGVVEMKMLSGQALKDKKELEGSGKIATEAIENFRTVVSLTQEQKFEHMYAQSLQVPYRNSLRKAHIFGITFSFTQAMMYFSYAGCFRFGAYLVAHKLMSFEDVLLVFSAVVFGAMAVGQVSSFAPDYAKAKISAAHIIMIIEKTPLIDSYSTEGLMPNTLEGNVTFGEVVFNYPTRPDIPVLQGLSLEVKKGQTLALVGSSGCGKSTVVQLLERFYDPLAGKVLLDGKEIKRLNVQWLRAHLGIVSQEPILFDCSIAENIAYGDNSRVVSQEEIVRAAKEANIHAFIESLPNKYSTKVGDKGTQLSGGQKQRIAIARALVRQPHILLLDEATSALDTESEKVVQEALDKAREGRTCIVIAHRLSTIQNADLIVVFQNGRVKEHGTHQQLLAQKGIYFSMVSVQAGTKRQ
P-gp (MDR1), sequence (P08183 whole entry): as above

SMILES	P-gp substrate (P-gp (MDR1-MDCKII cells); MDR1-MDCKII cells)	Rank Papp (P-gp (MDR1-MDCKII cells))	Mean Papp B to A (P-gp (MDR1-MDCKII cells); without GF120918)	Papp A→B at 2.5 h (P-gp (MDR1)) [×10⁻⁶ cm/s]	recovery at 2.5 h (P-gp (MDR1)) [%]	IC50 (HepG2 cells) [nM]
C[C@H]1O[C@@H](O[C@H]2[C@@H](O)C[C@H](O[C@H]3[C@@H](O)C[C@H](O[C@H]4CC[C@@]5(C)[C@H](CC[C@@H]6[C@@H]5C[C@@H](O)[C@]5(C)[C@@H](C7=CC(=O)OC7)CC[C@]65O)C4)O[C@@H]3C)O[C@@H]2C)C[C@H](O)[C@@H]1O [Digoxin, reference compound]	Ye s	Low	10.88 10 -6 cm/s			
COCCc1ccc(OCC(O)CNC(C)C)cc1 (stereo not shown) [Metoprolol, reference compound]		Hi gh		28.7	107	
CC(C)(C)NCC(O)COc1cccc2c1CC(O)C(O)C2 (stereo not shown) [Nadolol, reference compound]		Low		0.42	102	
CN[C@@H]1C[C@H]2O[C@@](C)([C@@H]1OC)n1c3ccccc3c3c4c(c5c6ccccc6n2c5c31)C(=O)NC4 [Staurosporine, reference compound]						60

From article PMC12067444, “Synthesis and Pharmacological Characterization of Novel Peripheral Cannabinoid-1 Receptor Blockers Based on a Tricyclic Scaffold” (Journal of Medicinal Chemistry, 2025)
